Assay: Sensory evaluation of the active ingredient safinamide (taste and irritation in the mouth)
Format: in vivo
Conditions: five minutes after rinsing with drinking water; 2 subjects
Description: In order to verify the unpleasant taste and irritation sensation of the active pharmaceutical ingredient, safinamide methanesulphonate, a test was performed in vivo by using an amount of safinamide methanesulfonate equal to 100 mg of safinamide base. Sensory evaluation was carried out by recruiting 2 subjects, who were asked to put said amount in the mouth by avoiding swallowing the mass. At the end of the test, participants were asked to rinse the mouth with plenty of drinking water; five minutes later their tongue and palate resulted to be still sore.

SMILES: C[C@H](NCc1ccc(OCc2cccc(F)c2)cc1)C(N)=O [safinamide methanesulfonate, (2S)-2-[[4-[(3-fluorophenyl)methoxy]phenyl]methylamino]propanamide]
- tongue and palate after rinsing the mouth: still sore

— patent publication US11103457B2, “Pharmaceutical compositions comprising safinamide” (Zambon S.P.A., priority 2017, dated 2021)
